The results in this text go back to patent US11702414B2, “Thiadiazole IRAK4 inhibitors” (Gilead Sciences, Inc., priority 2018, dated 2023).

Like-named read-outs stand apart in the source and are kept apart here.

For orientation: IC50 means the concentration at which inhibition is half-maximal.

Assay [1] has as its system TNFα. The experiment in a line: IRAK4 Monocyte TNFα Cell Based Assay. More on the design: species or system human. The settings on record: Homo sapiens, Monocyte, human monocytes. The method, then:
IRAK4 Monocyte TNFα Cell Based Assay Procedure:
The cell suspension was then plated at a density of 5,000 cells/well onto black 384 well Greiner clear bottom plates. Plates were pre-spotted with test compounds and serially diluted in DMSO where 40 nL/well were delivered using the Echo 550 acoustic liquid dispenser (Labcyte®) for a final DMSO concentration of 0.1%. Plated cells were treated with compound for 1 hour at 37° C. Cells were then stimulated with 50 pg/ml of LPS (Sigma) excluding outside columns of plate used for unstimulated cell control wells. Cells were incubated for an additional 4 hours at 37° C. Cells were then spun out of the media and 5μl of sample were taken and analyzed for total TNFα content using the TR-FRET Human TNFα detection system (CisBio). This system utilizes two labeled antibodies (cryptate and XL665) that bind to two different epitopes of the TNFα molecule and produce FRET signal proportional to the concentration of TNFα in the sample. Detection antibodies are mixed 50:50 and 5 μL were dispensed into each well. Plates were covered with clear seals and incubated at room temp overnight. […] Percent of control was calculated as follows: % Control=100×(RatioSample−Ratio0% Stimulation)/(Ratio100% Stimulation−Ratio0% Stimulation) where unstimulated cells (0% stimulation) were the negative control and stimulated cells (100% stimulation) were used as the positive control.

The target of assay [2] is IRAK4 enzyme (Homo sapiens (Human), UniProt Q9NWZ3). The experiment in a line: IRAK4 Biochemical Assay (TR-FRET, STK1 KinEASE). As for the experimental part: IRAK4 enzyme (Carna Biosciences, Chuo-ku, Kobe, Japan) activity was measured by detecting phosphorylated peptide substrate formation using an antibody against the phosphorylated peptide substrate. This is a time-resolved fluorescence resonance energy transfer (TR-FRET) immunoassay, based on the STK1 KinEASE Assay (Cisbio, Bedford, Mass.). The assay was designed as a simple two-step, endpoint assay (a 5 μl enzyme reaction followed by 5 μl stop and detect Solution) performed in ProxiPlate-384 Plus plates (Perkin Elmer, Waltham, Mass.). […] Compounds diluted in DMSO were spotted into 384 well plates using a Labcyte® Echo 550 Liquid Handling System prior to addition of IRAK4 enzyme and peptide substrate. Reaction solutions were delivered using a Multi-Flo (Bio-Tek Instruments). The enzyme and peptide solution was incubated with compound for 15 minutes at room temp before the reaction was initiated by the addition of ATP. The standard 5 μl reaction mixture contained 500 μM ATP, 2 μM peptide (STK1 Peptide), 0.75 nM of IRAK4 in reaction buffer (50 mM HEPES, pH 7.0, 0.02% NaN3, 0.01% BSA, 0.1 mM Orthovanadate, 5 mM MgCl2, 0.025% NP-40, 1 mM DTT). After 120 min of incubation at room temperature, 5 μl of Stop and Detect Solution (1:100 Cryptate labeled anti-phosphorylated peptide antibody solution and 125 nM Tracer in a 50 mM HEPES pH 7.0 detection buffer containing sufficient EDTA) was added. The plate was then further incubated for 60 minutes at room temperature and read on Envision 2103 Multilabeled reader (PerkinElmer) with excitation/emission/FRET emission at 340 nm/615 nm/665 nm, respectively. Fluorescence intensities at 615 nm and 665 nm emission wavelengths were expressed as a ratio (665 nm/615 nm). Percentage of inhibition was calculated as below: % Inhibition=100×(RatioSample−Ratio0% Inhibition)/(Ratio100% Inhibition−Ratio0% Inhibition)
The 0% inhibition value comes from control wells lacking inhibitor.
On the technique in general: In TR-FRET formats the signal depends on donor and acceptor labels being close together.

The mark [3] stands for this setting: second part of Table 2 (compounds 33-343), unit inferred, read-out: EC50MONO TNF HTRF.

IRAK4 enzyme, sequence (Q9NWZ3 whole entry): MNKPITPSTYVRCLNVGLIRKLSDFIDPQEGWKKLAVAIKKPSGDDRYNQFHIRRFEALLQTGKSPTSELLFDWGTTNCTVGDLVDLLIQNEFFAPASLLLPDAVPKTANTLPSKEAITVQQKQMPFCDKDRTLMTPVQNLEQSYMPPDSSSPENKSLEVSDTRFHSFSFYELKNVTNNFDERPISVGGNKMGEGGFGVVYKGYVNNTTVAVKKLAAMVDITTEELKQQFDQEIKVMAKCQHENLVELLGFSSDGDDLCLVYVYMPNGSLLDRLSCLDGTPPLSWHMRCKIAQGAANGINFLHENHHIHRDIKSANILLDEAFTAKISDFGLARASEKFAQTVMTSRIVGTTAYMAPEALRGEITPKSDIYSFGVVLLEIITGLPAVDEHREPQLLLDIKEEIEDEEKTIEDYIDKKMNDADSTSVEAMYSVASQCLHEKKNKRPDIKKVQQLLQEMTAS

Turning to `CC(C)Nc1cc(-c2ccc3cc(C#N)cnn23)ncc1-c1nnc(C2CCC(C#N)CC2)s1` (stereo not drawn) [Compound 333, 7-(5-(5-(4-cyanocyclohexyl)-1,3,4-thiadiazol-2-yl)-4-(isopropylamino)pyridin-2-yl)pyrrolo[1,2-b]pyridazine-3-carbonitrile], the EC50 in assay [1] (setting [3]) came to 1000 nM. Moreover, half-maximal inhibition in assay [2] (IC50) required 1.99 nM.
Taken in the same sequence, the figures for `CC(=O)NC12CCC(c3nnc(-c4cnc(-c5ccc6cc(C#N)cnn56)cc4NC4COC4)s3)(C1)C2` [Compound 334, N-(4-(5-(6-(3-cyanopyrrolo[1,2-b]pyridazin-7-yl)-4-(oxetan-3-ylamino)pyridin-3-yl)-1,3,4-thiadiazol-2-yl)bicyclo[2.1.1]hexan-1-yl)acetamide] were 98.9 nM and 2.41 nM.
Turning to `CC(C)(O)C(=O)NC12CCC(c3nnc(-c4cnc(-c5ccc6cc(C#N)cnn56)cc4NC4COC4)s3)(C1)C2` [Compound 335, N-(4-(5-(6-(3-cyanopyrrolo[1,2-b]pyridazin-7-yl)-4-(oxetan-3-ylamino)pyridin-3-yl)-1,3,4-thiadiazol-2-yl)bicyclo[2.1.1]hexan-1-yl)-2-hydroxy-2-methylpropanamide], the EC50 in assay [1] (setting [3]) worked out at 48.9 nM. This compound also had a half-inhibitory concentration (IC50) in assay [2] of 0.64 nM.
On to `CC(C)Nc1cc(-c2ccc3cc(C#N)cnn23)ncc1-c1nnc(C2CCOCC2)s1` [Example 32, 7-(4-(isopropylamino)-5-(5-(tetrahydro-2H-pyran-4-yl)-1,3,4-thiadiazol-2-yl)pyridin-2-yl)pyrrolo[1,2-b]pyridazine-3-carbonitrile], for which the EC50 in assay [1] (LPS-stimulated, compounds 1-32, read-out: EC50 TNF) came to 211 nM. Also, the IC50 in assay [2] (compounds 1-32, read-out: IC50 HTRF) was < 1 nM.
On to `CC(=O)NC[C@H]1CCCN1C(=O)c1nnc(-c2cnc(-c3ccc4cc(C#N)cnn34)cc2NC(C)C)s1` [Example 42, (R)-N-((1-(5-(6-(3-cyanopyrrolo[1,2-b]pyridazin-7-yl)-4-(isopropylamino)pyridin-3-yl)-1,3,4-thiadiazole-2-carbonyl)pyrrolidin-2-yl)methyl)acetamide], for which the EC50 in assay [1] (setting [3]) was found to be 35.7 nM. The same compound gave an IC50 in assay [2] of 1.5 nM.
Taken in the same sequence, the figures for `COC(=O)N[C@H]1CCN(C(=O)c2nnc(-c3cnc(-c4ccc5cc(C#N)cnn45)cc3NC(C)C)s2)C1` [Example 43, methyl (S)-(1-(5-(6-(3-cyanopyrrolo[1,2-b]pyridazin-7-yl)-4-(isopropylamino)pyridin-3-yl)-1,3,4-thiadiazole-2-carbonyl)pyrrolidin-3-yl)carbamate] were 21.9 nM and 0.72 nM.
Taken in the same sequence, the figures for `CC(C)Nc1cc(-c2ccc3cc(C#N)cnn23)ncc1-c1nnc(C(=O)N2CC[C@@H](NC(=O)C3CC3)C2)s1` [Example 47, (R)-N-(1-(5-(6-(3-cyanopyrrolo[1,2-b]pyridazin-7-yl)-4-(isopropylamino)pyridin-3-yl)-1,3,4-thiadiazole-2-carbonyl)pyrrolidin-3-yl)cyclopropanecarboxamide] were 5680 nM and 1.42 nM.
Regarding `CC(=O)N1CCC2(CC1)CN(c1nnc(-c3cnc(-c4ccc5cc(C#N)cnn45)cc3NC(C)C)s1)C2` [Example 67, 7-(5-(5-(7-acetyl-2,7-diazaspiro[3.5]nonan-2-yl)-1,3,4-thiadiazol-2-yl)-4-(isopropylamino)pyridin-2-yl)pyrrolo[1,2-b]pyridazine-3-carbonitrile], the EC50 in assay [1] (setting [3]) is 10.4 nM. This compound also registered an IC50 in assay [2] of 0.59 nM.
Taken in the same sequence, the figures for `CC(=O)N[C@@H]1C[C@H]2C[C@@H]1CN2c1nnc(-c2cnc(-c3ccc4cc(C#N)cnn34)cc2NC(C)C)s1` [Example 73, N-((1R,4R,5R)-2-(5-(6-(3-cyanopyrrolo[1,2-b]pyridazin-7-yl)-4-(isopropylamino)pyridin-3-yl)-1,3,4-thiadiazol-2-yl)-2-azabicyclo[2.2.1]heptan-5-yl)acetamide] were 64.1 nM and 0.61 nM.
